Holding throughout (test): Agar dilution test (Isosensitest medium / Denley multipoint inoculator), MIC
Common to all, as to assay type: cell-based
(In agar dilution, organisms are placed on agar that contains the substance at set levels.)

The test system of one assay is E. coli Neum. The settings on record: Escherichia coli, read-out: Minimale Hemmkonzentration. An excerpt: (§1) In der nachstehenden Tabelle sind die MHK-Werte einiger der erfindungsgemäßen Verbindungen angegeben.
Another assay has as its system E. coli T 7. Conditions: Escherichia coli, T7, read-out: Minimale Hemmkonzentration.
Source text: as §1

The test system of another assay is Klebsiella pneum. 63. The settings on record: read-out: Minimale Hemmkonzentration.
Source text: as §1

The next assay has as its system Klebsiella pneum. 8085. The settings on record: read-out: Minimale Hemmkonzentration.
Source text: as §1

Another assay relates to Proteus morg. 932. The settings on record: read-out: Minimale Hemmkonzentration.
Source text: as §1

In a further assay the test system is Proteus vulg. 1017. The settings on record: read-out: Minimale Hemmkonzentration.
Source text: as §1

The test system of the next assay is Staphylococcus aur. 133. The settings on record: read-out: Minimale Hemmkonzentration.
Source text: as §1

This passage reports MIC results from EP0168733A2, “Process for the preparation of quinolinone and naphthyridoncarboxylic acids” (BAYER AG, priority 1984, dated 1986).

Values after ≈ are worked out from the molar mass of the structure shown.

Take `O=C(O)c1cn(C2CC2)c2cc([N+](=O)[O-])c(Cl)cc2c1=O` [Beispiel 1, 6-Chlor-1-cyclopropyl-7-nitro-1,4-dihydro-4-oxo-3-chinolincarbonsäure]: the MIC in the assay on E. coli Neum. is 32 µg/mL (≈ 104 µM); in the assay with E. coli T 7 it was 64 µg/mL (≈ 207 µM); in the assay on Klebsiella pneum. 63, greater than 128 µg/mL; in the assay on Klebsiella pneum. 8085, 32 µg/mL (≈ 104 µM); in the assay on Proteus morg. 932 it was greater than 128 µg/mL; in the assay on Proteus vulg. 1017, greater than 128 µg/mL. The MIC in the assay on Staphylococcus aur. 133 was greater than 128 µg/mL.
On to `CN(C)n1cc(C(=O)O)c(=O)c2ccccc21` [Beispiel 4, 1-Dimethylamino-1,4-dihydro-4-oxo-3-chinolincarbonsäure], for which the MIC in the assay on E. coli Neum. was 32 µg/mL (≈ 138 µM); with E. coli T 7, 64 µg/mL (≈ 276 µM); in the assay with Klebsiella pneum. 63 it was greater than 128 µg/mL; in the assay with Klebsiella pneum. 8085 it was 64 µg/mL (≈ 276 µM); in the assay with Proteus morg. 932 it was 128 µg/mL (≈ 551 µM); with Proteus vulg. 1017 it was 128 µg/mL (≈ 551 µM). The MIC in the assay on Staphylococcus aur. 133 was greater than 128 µg/mL.
For `O=C(O)c1cn(C2CC2)c2cccc([N+](=O)[O-])c2c1=O` [Beispiel 6, 1-Cyclopropyl-5-nitro-1,4-dihydro-4-oxo-3-chinolincarbonsäure], the MIC turned out to be 32 µg/mL (≈ 117 µM) in the assay with E. coli Neum.; 32 µg/mL (≈ 117 µM) in the assay on E. coli T 7; 128 µg/mL (≈ 467 µM) in the assay on Klebsiella pneum. 63; 128 µg/mL (≈ 467 µM) in the assay on Klebsiella pneum. 8085; 64 µg/mL (≈ 233 µM) in the assay with Proteus morg. 932; 64 µg/mL (≈ 233 µM) in the assay with Proteus vulg. 1017. The MIC with Staphylococcus aur. 133 is greater than 128 µg/mL.
Regarding `O=C(O)c1cn(C2CC2)c2cc([N+](=O)[O-])ccc2c1=O` [Beispiel 7, 1-Cyclopropyl-7-nitro-1,4-dihydro-4-oxo-3-chinolincarbonsäure], the MIC was 0.5 µg/mL (≈ 1.82 µM) with Klebsiella pneum. 63; 0.06 µg/mL (≈ 0.219 µM) in the assay with Klebsiella pneum. 8085; 0.25 µg/mL (≈ 0.912 µM) in the assay with Proteus morg. 932; 0.25 µg/mL (≈ 0.912 µM) with Proteus vulg. 1017; 32 µg/mL (≈ 117 µM) in the assay on Staphylococcus aur. 133.
